# Assay results as given in the Kinase Knowledgebase extract (Sharma et al. 2016).
# pIC50: −log10 of the molar value.
# Assays:
# PIK3CD (Human) = PIK3CD (Human) (UniProt O00329); test: Assessment of PIK3CD Kinase Activity
# PIK3CA (human) = PIK3CA (human) (UniProt P42336); test: Assessment of PIK3CA Kinase Activity
# PIK3CB (Human) = PIK3CB (Human) (UniProt P42338); test: Assessment of PIK3CB Kinase Activity
# PIK3CG (human) = PIK3CG (human) (UniProt P48736); test: Assessment of PIK3CG Kinase Activity
# Chain of PIK3CG (human) (P48736 whole entry, looked up): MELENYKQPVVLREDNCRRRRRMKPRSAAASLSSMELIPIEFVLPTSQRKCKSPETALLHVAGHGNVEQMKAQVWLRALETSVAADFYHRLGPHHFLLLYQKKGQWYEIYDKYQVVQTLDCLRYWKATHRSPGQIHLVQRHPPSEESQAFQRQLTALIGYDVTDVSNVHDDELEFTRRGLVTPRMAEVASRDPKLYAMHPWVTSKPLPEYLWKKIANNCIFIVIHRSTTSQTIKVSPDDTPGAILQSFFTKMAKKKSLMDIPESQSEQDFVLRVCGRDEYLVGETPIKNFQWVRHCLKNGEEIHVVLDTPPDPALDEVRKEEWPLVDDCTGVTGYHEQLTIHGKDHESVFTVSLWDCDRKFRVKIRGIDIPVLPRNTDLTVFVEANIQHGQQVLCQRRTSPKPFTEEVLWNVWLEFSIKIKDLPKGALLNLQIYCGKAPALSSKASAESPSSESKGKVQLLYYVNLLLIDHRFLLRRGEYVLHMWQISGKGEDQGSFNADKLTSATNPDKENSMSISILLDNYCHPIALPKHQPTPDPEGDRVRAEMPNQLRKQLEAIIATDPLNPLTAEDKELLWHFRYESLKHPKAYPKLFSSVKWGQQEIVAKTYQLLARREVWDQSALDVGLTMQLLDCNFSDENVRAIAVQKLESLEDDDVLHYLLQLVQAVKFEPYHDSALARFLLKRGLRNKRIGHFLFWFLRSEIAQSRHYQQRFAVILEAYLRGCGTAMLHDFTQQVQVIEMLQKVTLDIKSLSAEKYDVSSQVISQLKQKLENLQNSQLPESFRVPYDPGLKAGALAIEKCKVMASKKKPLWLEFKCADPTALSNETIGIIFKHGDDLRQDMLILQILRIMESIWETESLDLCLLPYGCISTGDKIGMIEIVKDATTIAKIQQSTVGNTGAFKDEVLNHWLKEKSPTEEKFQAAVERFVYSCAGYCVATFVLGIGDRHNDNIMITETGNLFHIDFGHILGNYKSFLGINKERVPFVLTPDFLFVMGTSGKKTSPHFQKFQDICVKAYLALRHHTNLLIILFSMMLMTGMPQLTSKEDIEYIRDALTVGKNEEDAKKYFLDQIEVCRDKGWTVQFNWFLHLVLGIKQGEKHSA
# Chain of PIK3CD (Human) (O00329 whole entry, looked up): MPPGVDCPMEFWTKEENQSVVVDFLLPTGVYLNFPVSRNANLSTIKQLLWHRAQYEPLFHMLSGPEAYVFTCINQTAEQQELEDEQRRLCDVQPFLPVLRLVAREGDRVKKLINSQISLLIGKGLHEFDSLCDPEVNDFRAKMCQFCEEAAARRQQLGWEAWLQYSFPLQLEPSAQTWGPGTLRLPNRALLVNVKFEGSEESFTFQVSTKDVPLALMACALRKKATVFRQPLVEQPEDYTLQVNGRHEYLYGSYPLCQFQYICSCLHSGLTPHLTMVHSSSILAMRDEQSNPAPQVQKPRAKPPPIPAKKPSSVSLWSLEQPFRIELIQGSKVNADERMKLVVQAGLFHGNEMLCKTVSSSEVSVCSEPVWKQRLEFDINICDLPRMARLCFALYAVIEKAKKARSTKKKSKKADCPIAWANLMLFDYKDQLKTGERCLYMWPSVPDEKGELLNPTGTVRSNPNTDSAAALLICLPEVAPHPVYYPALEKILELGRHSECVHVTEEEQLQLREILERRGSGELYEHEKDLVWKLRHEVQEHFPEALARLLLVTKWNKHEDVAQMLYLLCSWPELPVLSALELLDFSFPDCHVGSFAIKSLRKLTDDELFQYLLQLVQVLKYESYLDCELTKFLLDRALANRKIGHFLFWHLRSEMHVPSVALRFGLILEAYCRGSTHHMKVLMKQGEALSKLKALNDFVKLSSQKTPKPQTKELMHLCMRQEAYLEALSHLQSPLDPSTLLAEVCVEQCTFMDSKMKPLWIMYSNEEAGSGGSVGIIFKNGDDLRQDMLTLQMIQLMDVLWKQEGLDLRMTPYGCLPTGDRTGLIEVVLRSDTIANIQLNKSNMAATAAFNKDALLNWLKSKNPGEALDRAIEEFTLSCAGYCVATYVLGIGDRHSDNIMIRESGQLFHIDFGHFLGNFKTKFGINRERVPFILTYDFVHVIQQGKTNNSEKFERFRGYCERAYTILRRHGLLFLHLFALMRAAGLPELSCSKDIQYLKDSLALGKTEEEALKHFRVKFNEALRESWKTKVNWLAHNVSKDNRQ
# Chain of PIK3CB (Human) (P42338 whole entry, looked up): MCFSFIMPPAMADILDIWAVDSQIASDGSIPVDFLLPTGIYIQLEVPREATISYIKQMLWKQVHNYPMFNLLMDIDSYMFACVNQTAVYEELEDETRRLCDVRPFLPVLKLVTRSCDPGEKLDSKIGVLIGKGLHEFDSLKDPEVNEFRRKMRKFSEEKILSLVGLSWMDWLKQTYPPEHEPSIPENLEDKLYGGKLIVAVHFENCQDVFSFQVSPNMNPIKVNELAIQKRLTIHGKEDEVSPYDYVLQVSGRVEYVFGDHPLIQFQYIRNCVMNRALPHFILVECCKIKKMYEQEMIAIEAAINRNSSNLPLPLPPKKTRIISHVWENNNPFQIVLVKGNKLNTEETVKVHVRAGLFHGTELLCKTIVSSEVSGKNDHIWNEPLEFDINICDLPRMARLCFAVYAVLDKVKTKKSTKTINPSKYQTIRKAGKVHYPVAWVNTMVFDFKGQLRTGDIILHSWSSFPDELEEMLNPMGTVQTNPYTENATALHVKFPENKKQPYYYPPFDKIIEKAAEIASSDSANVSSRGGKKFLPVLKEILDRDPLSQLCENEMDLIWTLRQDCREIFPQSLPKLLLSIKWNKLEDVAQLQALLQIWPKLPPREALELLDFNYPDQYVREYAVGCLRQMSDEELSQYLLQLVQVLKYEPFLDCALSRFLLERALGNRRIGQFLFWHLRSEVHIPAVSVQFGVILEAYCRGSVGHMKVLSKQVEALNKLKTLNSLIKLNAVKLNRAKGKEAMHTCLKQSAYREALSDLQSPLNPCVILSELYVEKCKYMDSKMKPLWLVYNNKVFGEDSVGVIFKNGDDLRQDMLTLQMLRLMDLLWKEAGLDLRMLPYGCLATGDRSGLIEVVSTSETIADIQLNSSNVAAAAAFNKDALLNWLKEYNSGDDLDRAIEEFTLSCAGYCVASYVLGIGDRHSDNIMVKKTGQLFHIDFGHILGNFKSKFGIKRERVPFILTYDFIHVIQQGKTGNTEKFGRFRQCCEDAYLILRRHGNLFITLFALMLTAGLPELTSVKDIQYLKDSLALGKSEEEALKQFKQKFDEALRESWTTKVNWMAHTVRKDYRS
# Chain of PIK3CA (human) (P42336 whole entry, looked up): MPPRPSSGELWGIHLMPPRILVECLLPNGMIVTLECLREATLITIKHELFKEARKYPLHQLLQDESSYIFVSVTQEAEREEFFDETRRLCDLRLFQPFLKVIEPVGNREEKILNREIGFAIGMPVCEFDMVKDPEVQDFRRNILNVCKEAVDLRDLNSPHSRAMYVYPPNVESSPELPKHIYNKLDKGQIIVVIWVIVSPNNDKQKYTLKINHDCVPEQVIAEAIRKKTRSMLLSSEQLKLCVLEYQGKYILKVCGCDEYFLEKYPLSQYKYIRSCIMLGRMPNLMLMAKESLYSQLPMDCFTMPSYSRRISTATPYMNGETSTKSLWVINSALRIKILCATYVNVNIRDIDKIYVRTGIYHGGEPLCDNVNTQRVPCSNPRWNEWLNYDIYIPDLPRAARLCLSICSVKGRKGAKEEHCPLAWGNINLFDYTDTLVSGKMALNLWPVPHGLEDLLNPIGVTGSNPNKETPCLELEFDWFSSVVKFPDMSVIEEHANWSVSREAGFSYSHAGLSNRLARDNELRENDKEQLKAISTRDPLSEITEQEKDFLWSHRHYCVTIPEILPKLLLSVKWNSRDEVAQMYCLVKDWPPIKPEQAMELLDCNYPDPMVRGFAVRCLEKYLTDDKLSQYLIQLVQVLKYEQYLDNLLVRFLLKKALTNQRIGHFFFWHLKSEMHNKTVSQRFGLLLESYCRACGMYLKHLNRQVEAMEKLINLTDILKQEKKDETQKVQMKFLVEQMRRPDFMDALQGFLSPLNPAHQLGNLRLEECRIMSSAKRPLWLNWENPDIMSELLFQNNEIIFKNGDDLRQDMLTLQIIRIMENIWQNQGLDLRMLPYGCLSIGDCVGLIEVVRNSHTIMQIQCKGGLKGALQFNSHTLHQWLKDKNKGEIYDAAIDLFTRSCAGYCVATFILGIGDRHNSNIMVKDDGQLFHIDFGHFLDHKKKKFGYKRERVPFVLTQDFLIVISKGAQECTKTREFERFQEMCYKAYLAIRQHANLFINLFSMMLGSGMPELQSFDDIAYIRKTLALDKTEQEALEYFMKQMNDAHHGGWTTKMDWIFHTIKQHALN
SMILES,pIC50 (PIK3CD (Human)),pIC50 (PIK3CA (human)),pIC50 (PIK3CB (Human)),pIC50 (PIK3CG (human))
C[C@H](Nc1ncnc2[nH]cnc12)c1cc2scc(C(F)(F)F)c2c(=O)n1-c1ccccc1,6.00 to 7.00,6.00 to 7.00,6.00 to 7.00,–
Cc1cn2nccc(N[C@@H](C)c3cc4cccc(Cl)c4c(=O)n3-c3ccccc3)c2n1,–,< 5.00,< 5.00,–
CNc1nc(N[C@@H](C)c2cc3cccc(NC)c3c(=O)n2-c2ccccc2)c2ncccc2n1,6.00 to 7.00,< 5.00,< 5.00,> 7.00
C[C@H](Nc1ccn2nccc2n1)c1cc2cccc(Cl)c2c(=O)n1-c1ccccc1,< 5.00,< 5.00,< 5.00,< 5.00
C[C@H](Nc1nc(N)nc2cccnc12)c1cc2cccc(N(C)C)c2c(=O)n1-c1ccccc1,–,< 5.00,< 5.00,6.00 to 7.00
C[C@H](Nc1c(C#N)cnc2cccnc12)c1cc2cccc(C(F)(F)F)c2c(=O)n1-c1ccccc1,< 5.00,< 5.00,< 5.00,–
C[C@H](Nc1ncnc(N)n1)c1cc2cccc(Cl)c2c(=O)n1-c1cccc(F)c1,6.00 to 7.00,< 5.00,< 5.00,–
Cc1cc(-c2cccc3cc([C@H](C)Nc4ncnc5cccnc45)n(-c4ccccc4)c(=O)c23)ccn1,> 7.00,6.00 to 7.00,–,> 7.00
C[C@H](Nc1ncnc2cccnc12)c1cc2scc(C(F)(F)F)c2c(=O)n1-c1ccccc1,> 7.00,< 5.00,< 5.00,–
Cc1cn2nccc(N[C@@H](C)c3cc4cccc(Cl)c4c(=O)n3-c3cccc(F)c3)c2n1,–,< 5.00,< 5.00,–
COc1ccc(CNc2nc(N[C@@H](C)c3cc4cccc(-c5cnc(OC)nc5)c4c(=O)n3-c3ccccc3)c3ncccc3n2)cc1,6.00 to 7.00,< 5.00,–,6.00 to 7.00
C[C@H](Nc1nc(N)nc2cccnc12)c1cc2cccc(-c3cnc4ccccc4c3)c2c(=O)n1-c1ccccc1,> 7.00,6.00 to 7.00,–,> 7.00
C[C@H](Nc1c(C#N)cnc2cccnc12)c1cc2cccc(Cl)c2c(=O)n1-c1ccccc1,< 5.00,< 5.00,< 5.00,–
C[C@H](Nc1ncnc2cccnc12)c1cc2cccc(-c3cnn(C)c3)c2c(=O)n1C,–,< 5.00,< 5.00,–
Cc1cc(-c2cccc3cc([C@H](C)Nc4nc(N)nc5cccnc45)n(-c4ccccc4)c(=O)c23)ccn1,> 7.00,6.00 to 7.00,–,> 7.00
C[C@H](Nc1ccnc2cccnc12)c1cc2cccc(C(F)(F)F)c2c(=O)n1-c1ccccc1,> 7.00,< 5.00,–,> 7.00
Cc1ncc(-c2cccc3cc([C@H](C)Nc4nc(N)nc5cccnc45)n(-c4ccccc4)c(=O)c23)s1,> 7.00,6.00 to 7.00,–,> 7.00

SMILES,pIC50 (PIK3CD (Human)),pIC50 (PIK3CA (human)),pIC50 (PIK3CB (Human)),pIC50 (PIK3CG (human))
C[C@H](Nc1cc(N)nc2ccnn12)c1cc2cccc(Cl)c2c(=O)n1-c1ccccc1,> 7.00,< 5.00,–,> 7.00
C[C@H](Nc1nc(N)nc2cccnc12)c1cc2cccc(-c3cnn(C)c3)c2c(=O)n1C1CC1,> 7.00,6.00 to 7.00,–,> 7.00
COc1nc(N[C@@H](C)c2cc3cccc(C(F)(F)F)c3c(=O)n2-c2cccc(F)c2)c2ncccc2n1,< 5.00,< 5.00,< 5.00,–
Cc1cncc(-c2cccc3cc([C@H](C)Nc4nc(N)nc5cccnc45)n(-c4ccccc4)c(=O)c23)c1,> 7.00,6.00 to 7.00,–,> 7.00
Cc1ccnc2cc(C(C)Nc3ncnc4cccnc34)[nH]c(=O)c12 (configuration not stated),–,< 5.00,< 5.00,< 5.00
C[C@H](Nc1cc(Cl)ncc1C#N)c1cc2cccc(Cl)c2c(=O)n1-c1ccccc1,–,< 5.00,< 5.00,< 5.00
C[C@H](Nc1ncnc2ccnn12)c1cc2cccc(C(F)(F)F)c2c(=O)n1-c1ccccc1,> 7.00,< 5.00,–,> 7.00
Cc1cn2nccc(N[C@@H](C)c3cc4cccc(-c5cnn(C)c5)c4c(=O)n3-c3ccccc3)c2n1,–,< 5.00,< 5.00,–
C[C@H](Nc1nc(N)ncc1C(F)(F)F)c1cc2cccc(C(F)(F)F)c2c(=O)n1-c1cccc(F)c1,> 7.00,< 5.00,–,> 7.00
C[C@H](Nc1ncnc2cccnc12)c1cc2scc(-c3cnn(C)c3)c2c(=O)n1-c1ccccc1,–,< 5.00,< 5.00,> 7.00
C[C@H](Nc1c(C#N)cnc2cccnc12)c1cc2cccc(-c3cnn(C)c3)c2c(=O)n1-c1ccccc1,< 5.00,< 5.00,< 5.00,–
C[C@H](Nc1cc(Cl)nn2ccnc12)c1cc2cccc(C(F)(F)F)c2c(=O)n1-c1cccc(F)c1,6.00 to 7.00,< 5.00,< 5.00,–
C[C@H](Nc1cc(O)nc2cccnc12)c1cc2cccc(Cl)c2c(=O)n1-c1ccccc1,–,< 5.00,< 5.00,–
C[C@H](Nc1c(C#N)cnc2cccnc12)c1cc2cccc(Cl)c2c(=O)n1-c1cccc(F)c1,< 5.00,< 5.00,< 5.00,–
C[C@H](Nc1ncnn2cncc12)c1cc2cccc(C(F)(F)F)c2c(=O)n1-c1ccccc1,–,< 5.00,< 5.00,< 5.00
Cc1cccc2cc([C@H](C)Nc3nc(N)nc4cccnc34)n(-c3cccc(F)c3)c(=O)c12,> 7.00,6.00 to 7.00,–,> 7.00
Cc1nc2c(N[C@@H](C)c3cc4cccc(C(F)(F)F)c4c(=O)n3-c3ccccc3)ncnc2s1,< 5.00,< 5.00,< 5.00,–

# Results, then the compound that gave them:
pIC50 (PIK3CD (Human)),pIC50 (PIK3CA (human)),pIC50 (PIK3CB (Human)),pIC50 (PIK3CG (human)),SMILES
> 7.00,< 5.00,< 5.00,> 7.00,C[C@H](Nc1ncnc(N)c1C#N)c1cc2cccc(C(F)(F)F)c2c(=O)n1-c1ccccc1
< 5.00,< 5.00,< 5.00,< 5.00,COc1nc(N[C@@H](C)c2cc3cccc(Cl)c3c(=O)n2-c2ccccc2)c2ncccc2n1
> 7.00,6.00 to 7.00,> 7.00,> 7.00,C[C@H](Nc1cc(N)ncc1C(N)=O)c1cc2cccc(Cl)c2c(=O)n1-c1ccccc1
6.00 to 7.00,< 5.00,< 5.00,6.00 to 7.00,C[C@H](Nc1nc(Cl)nc2cccnc12)c1cc2cccc(-c3cnn(C)c3)c2c(=O)n1C1CC1
> 7.00,6.00 to 7.00,> 7.00,> 7.00,C[C@H](Nc1nc(N)nc2cccnc12)c1cc2cccc(Cl)c2c(=O)n1-c1ccccc1
> 7.00,6.00 to 7.00,6.00 to 7.00,> 7.00,C[C@H](Nc1nc(N)nc2cccnc12)c1nc2cccc(Cl)c2c(=O)n1-c1ccccc1
< 5.00,< 5.00,< 5.00,< 5.00,CCOC(=O)c1cnc(N[C@@H](C)c2cc3cccc(-c4ccnc(OC)c4)c3c(=O)n2-c2ccccc2)nc1N
–,< 5.00,< 5.00,< 5.00,C[C@H](NCc1cnc2cccnn12)c1cc2cccc(Cl)c2c(=O)n1-c1ccccc1
–,< 5.00,< 5.00,< 5.00,COc1ncc(-c2cccc3cc([C@H](C)Nc4cc(O)nc5cccnc45)n(-c4ccccc4)c(=O)c23)cn1
–,< 5.00,< 5.00,< 5.00,C[C@H](Nc1ncnn2cncc12)c1cc2cccc(Cl)c2c(=O)n1-c1cccc(F)c1
> 7.00,< 5.00,–,> 7.00,C[C@H](Nc1ncnc2[nH]nc(C#N)c12)c1cc2cccc(Cl)c2c(=O)n1-c1ccccc1
> 7.00,6.00 to 7.00,–,> 7.00,C[C@H](Nc1ncnc2cccnc12)c1cc2cccc(-c3cnc(N)nc3)c2c(=O)n1-c1ccccc1
6.00 to 7.00,< 5.00,< 5.00,–,Cc1nsc2cc(C(C)Nc3ncnc4cccnc34)n(-c3ccccc3)c(=O)c12 (configuration not stated)
–,< 5.00,< 5.00,< 5.00,C[C@H](Nc1ncc2[nH]cnc2n1)c1cc2cccc(Cl)c2c(=O)n1-c1ccccc1
–,6.00 to 7.00,6.00 to 7.00,> 7.00,C[C@H](Nc1ncnc2cccnc12)c1cc2c(F)ccc(Cl)c2c(=O)n1-c1ccccc1
–,< 5.00,< 5.00,–,C[C@H](Nc1cc(Cl)nn2ccnc12)c1cc2cccc(-c3cnn(C)c3)c2c(=O)n1C1CC1
> 7.00,< 5.00,–,> 7.00,C[C@H](Nc1nc(N)ncc1C(F)(F)F)c1cc2cccc(C(F)(F)F)c2c(=O)n1-c1ccccc1
–,< 5.00,< 5.00,6.00 to 7.00,C[C@H](Nc1nc(Cl)nc2cccnc12)c1cc2cccc(C(F)(F)F)c2c(=O)n1-c1ccccc1
–,< 5.00,< 5.00,–,C[C@H](Nc1nc(Cl)nc2nccnc12)c1cc2cccc(Cl)c2c(=O)n1-c1ccccc1
–,< 5.00,< 5.00,> 7.00,C[C@H](Nc1nc(Cl)nc2cccnc12)c1cc2cccc(Cl)c2c(=O)n1-c1ccccc1
> 7.00,< 5.00,–,> 7.00,C[C@H](Nc1ccnc2ccnn12)c1cc2cccc(C(F)(F)F)c2c(=O)n1-c1cccc(F)c1
–,< 5.00,< 5.00,< 5.00,C[C@H](Nc1nc(Cl)nc2nc(Cl)cnc12)c1cc2cccc(Cl)c2c(=O)n1-c1ccccc1
> 7.00,< 5.00,–,> 7.00,C[C@H](Nc1nc(Cl)nc2scnc12)c1cc2cccc(C(F)(F)F)c2c(=O)n1-c1ccccc1
> 7.00,6.00 to 7.00,–,> 7.00,COc1cncc(-c2cccc3cc([C@H](C)Nc4nc(N)nc5cccnc45)n(-c4ccccc4)c(=O)c23)c1
> 7.00,6.00 to 7.00,–,> 7.00,Cc1cc(-c2cccc3nc([C@H](C)Nc4nc(N)nc5cccnc45)n(-c4ccccc4)c(=O)c23)ccn1
< 5.00,< 5.00,< 5.00,–,Cc1cn2nccc(N[C@@H](C)c3cc4cccc(C(F)(F)F)c4c(=O)n3-c3ccccc3)c2n1
